Consider 1 compound from PMC6597546, “Identification of a potent benzoxaborole drug candidate for treating cryptosporidiosis” (Nature Communications, 2019).

“And” between values parts separate entries of the source, which are not always exact repeats. Equal values may be shown once. Read-outs that look alike come from different tables or passages of the source.

In assay [1] the test system is C. parvum (University of Arizona Iowa isolate). It is filed as in vivo, C57BL/6 IFN-γ−/− mice. On the procedure:
Interferon gamma (IFN-γ) knockout mice were used to model acute Cryptosporidium infection. All IFN-γ knockout mouse studies were performed in compliance with animal care guidelines and were approved by the Explora BioLabs (San Diego, CA) Institutional Animal Care and Use Committee. Four-week-old female C57BL/6 IFN-γ^−/− mice with normal flora were purchased from The Jackson laboratory and acclimated for 3 days prior to infection by oral gavage with ∼10^6 C. parvum Iowa isolate oocysts (Sterling Laboratory, University of Arizona) suspended in sterile distilled water. At the indicated times following infection, mice were treated with compound vehicle alone, clofazimine (positive control), or once daily AN7973 at the indicated doses. Fecal parasite shedding was measured by isolating oocysts using sucrose gradient centrifugation. Sheather’s sucrose solution was freshly prepared by dissolving 156.25 g sucrose and 2.5 mL phenol in 100 mL water. Two sucrose solutions were prepared: (A) specific gravity of 1.103 (33% Sheather’s and 0.1% Tween 80 in PBS) and (B) specific gravity of 1.064 (20% Sheather’s and 0.1% Tween 80 in PBS). In a 2 mL microfuge tube, a gradient was prepared by laying 0.75 mL of solution A, then carefully laying 0.75 mL of solution B, slowly as to prevent mixing of the two layers. Fecal pellets were removed from storage, and homogenized by vortexing and pipetting. 0.2 mL fecal homogenate was overlaid on top of gradient in each microfuge tube. Oocysts were floated from feces by centrifugation at 1000 × g for 20 min and collected with a pipet tip from the 1.064/1.103 specific gravity interface between solutions A and B. Oocysts were rinsed once in cold PBS, pelleted by centrifugation at 15,000 × g for 10 min, and resuspended in PBS. Isolated oocysts were then stained with a fluorescein isothiocyanate-conjugated mouse anti-Cryptosporidium antibody (Bio-Rad catalog# 2402-3007 F; 0.25 µg per sample) and quantified using a Guava EasyCyte flow cytometer and CytoSoft data acquisition software (version 5.3; Guava Technologies, Inc.). Oocysts per milliliter of sample were normalized to counts per milligram of feces.

The subject of assay [2] is C. parvum (Bunch Grass Farms Iowa isolate). Also noted: method as in PMID 29339392. Conditions: cited from earlier work.

`CC(C)/N=c1\cc2n(-c3ccc(Cl)cc3)c3ccccc3nc-2cc1Nc1ccc(Cl)cc1` [Clofazimine, clofazimine, reference compound]: the “fecal oocyst shedding, individual mice” value was 15 (2×) and 18 and 16 in assay [1] (10 mg/kg QD from day 4, day p.i. 14); 10 and 8 (2×) and 9 in assay [1] (25 mg/kg QD from day 4, day p.i. 8). Also, the “efficacy against Cryptosporidium in the NSG mouse” value in assay [2] was “lacks efficacy”.
